Measurements taken from article PMC9623506, “Development of a novel peptide inhibitor of subtilisin BPN′” (FEBS Open Bio, 2022).
Like-named read-outs stand apart in the source and are kept apart here. Positions of bridges follow the written chain, without caps; N, C: chain ends. Residues, ends and D or L forms follow the SMILES beside them. No end group written: not given here.

B1: SSI: Streptomyces subtilisin inhibitor (protein, UniProt P01006 32-144, looked up)
Subtilisin inhibitor: DAPSALYAPSALVLTVGKGVSATTAAPERAVTLTCAPGPSGTHPAAGSACADLAAVGGDLNALTRGEDVMCPMVYDPVLLTVDGVWQGKRVSYERVFSNECEMNAHGSSVFAF
B2: EGL: leech eglin‐C (protein, UniProt P01051 1-70, looked up)
Eglin C: TEFGSELKSFPEVVGKTVDQAREYFTLHYPQYDVYFLPEGSPVTLDLRYNRVRVFYNPGTNVVNHVPHVG

Experiments:
[1] = molecular target: T1, subtilisin BPN′ (Bacillus amyloliquefaciens, UniProt P00782); details: against subtilisin BPN′; cited from earlier work
T1 construct: purchased Sigma-Aldrich (Tokyo, Japan)
T1 sequence (P00782 108-382): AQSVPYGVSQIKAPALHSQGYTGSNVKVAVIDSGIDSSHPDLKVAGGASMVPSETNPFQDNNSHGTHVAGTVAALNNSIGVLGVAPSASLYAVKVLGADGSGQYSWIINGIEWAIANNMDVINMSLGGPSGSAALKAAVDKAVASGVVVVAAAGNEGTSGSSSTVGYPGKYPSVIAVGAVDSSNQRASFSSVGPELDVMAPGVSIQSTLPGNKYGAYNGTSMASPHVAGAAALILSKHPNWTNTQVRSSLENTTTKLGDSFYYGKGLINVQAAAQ

[2] = molecular target: T1, subtilisin BPN′; test: biochemical; format: biochemical; details: for Inhibitory activity / binding in words, by Ki: synthetic substrate N‐suc‐AAPF‐pNA, compared with prototype ASIP or single mutants
Protocol: Subtilisin BPN′ and N‐succinyl‐Ala‐Ala‐Pro‐Phe‐p‐nitroanilide (N‐suc‐AAPF‐pNA) were purchased from Sigma‐Aldrich (Tokyo, Japan). The oligopeptides used in this study were synthesized by Eurofins Genomics (Tokyo, Japan). The formation of an S‐S bond in each peptide was accomplished by incubating an equimolar amount of cystine with the peptide, and the concentrations of the oxidized peptides were determined by amino acid analyses after hydrolysis of the peptide with 6 M HCl at 110 °C for 24 h in vacuo.
The inhibitory activities of peptides against subtilisin BPN′ were preliminarily measured using the casein‐Folin method. First, casein was incubated with subtilisin BPN′ in the absence or presence of various molar ratios of synthetic peptides at 37 °C and pH 7.0 for 10 min. Trichloroacetic acid was added to the reaction mixture to precipitate the undigested casein, and the supernatant was mixed with sodium carbonate and Folin's phenol reagent. The absorbance at 660 nm was then measured to determine the amount of peptide obtained by digestion. Inhibitory activity was defined as the reduction in the amount of peptides derived from the enzymatic digestion of casein in the presence of a synthetic peptide when compared to the amount of peptides in the absence of synthetic peptides. To determine the K i values, the proteolytic activities of subtilisin BPN′ in the presence of various molar ratios of synthetic peptides were measured using a synthetic substrate, N‐suc‐AAPF‐pNA, as described previously, and then, the K i values were calculated by nonlinear curve fitting using the Morrison equation [13].

[3] = molecular target: T1, subtilisin BPN′; test: ASIP without a disulfide bond with subtilisin BPN′: inhibition and cleavage; format: biochemical
Excerpt: To clarify the relationship between disulfide bond formation and its activity as a subtilisin inhibitor, we measured the inhibitory activities of ASIP with or without a disulfide bond. […] The inhibitory properties of the oxidized form of ASIP were then investigated.

[4] = molecular target: subtilisin Carlsberg; details: against subtilisin Carlsberg; cited from earlier work
Excerpt: Table 3 Proteinaceous subtilisin inhibitors. Amino acid residue lengths, sequences from the P4 to P4′ positions, and K i values against subtilisin BPN′ or Carlsberg of the inhibitors are listed. The most conserved residues at each position are shown in bold font. Residue numbers at the P1 position are indicated by superscript numbers.

Molecule | Ki [2] | further results
marinostatin (FATMRYPSDSDE) [MST] |  | Ki [1]: 1.5 nM
CC(C)C[C@@H]1NC(=O)[C@@H](NC(=O)[C@H](CO)NC(=O)[C@H](Cc2ccccc2)NC(=O)[C@H](CC(=O)O)NC(=O)[C@@H](N)CO)CSSC[C@@H](C(=O)N[C@@H](CCCNC(=N)N)C(=O)N[C@@H](CCCCN)C(=O)O)NC(=O)CNC(=O)[C@H](CCC(=O)O)NC(=O)[C@H](CO)NC1=O [T12K] (H-SDFSCLSEGCRK-OH; disulfide 5-10) | 5.43 ± 0.29 nM | Inhibitory activity / binding in words, by Ki [2]: significantly higher inhibition and binding affinity
SDFSCLSEGCRT (cysteine pairing not given here) [ASIP without a disulfide bond, ASIP without the Cys5‐Cys10 disulfide bond] |  | Inhibitory activity against subtilisin BPN′ in words ([3]; ASIP without a disulfide bond, substrate not stated): lacked inhibitory activity; Cleavage by subtilisin BPN′ ([3]; reduced / linear form of ASIP, cleaved at the peptide bond between Leu6 and Ser7): specifically cleaved
CC(C)C[C@@H]1NC(=O)[C@@H](NC(=O)[C@H](CO)NC(=O)[C@H](Cc2ccccc2)NC(=O)[C@H](CC(=O)O)NC(=O)[C@@H](N)CO)CSSC[C@@H](C(=O)N[C@@H](CCCNC(=N)N)C(=O)N[C@@H](CC(=O)O)C(=O)O)NC(=O)CNC(=O)[C@H](CCC(=O)O)NC(=O)[C@H](CO)NC1=O [T12D] (H-SDFSCLSEGCRD-OH; disulfide 5-10) | 23.1 ± 3.35 nM | Inhibitory activity / binding in words, by Ki [2]: decreased the inhibitory activity
CC(C)C[C@@H]1NC(=O)[C@@H](NC(=O)[C@H](CO)NC(=O)[C@H](Cc2ccccc2)NC(=O)[C@H](CC(=O)O)NC(=O)[C@@H](N)CO)CSSC[C@@H](C(=O)N[C@@H](CCCNC(=N)N)C(=O)N[C@H](C(=O)O)[C@@H](C)O)NC(=O)CNC(=O)[C@H](CCC(=O)O)NC(=O)[C@H](C)NC1=O [S7A] (H-SDFSCLAEGCRT-OH; disulfide 5-10) | 2.58 ± 0.2 nM | 
OMTKY3: turkey ovomucoid third domain |  | Ki [1]: 0.023 nM
CC(C)C[C@@H]1NC(=O)[C@@H](NC(=O)[C@H](CO)NC(=O)[C@H](Cc2ccccc2)NC(=O)[C@H](CC(=O)O)NC(=O)[C@@H](N)CO)CSSC[C@@H](C(=O)N[C@@H](CCCNC(=N)N)C(=O)N[C@@H](C)C(=O)O)NC(=O)CNC(=O)[C@H](CCC(=O)O)NC(=O)[C@H](C)NC1=O [S7A + T12A] (H-SDFSCLAEGCRA-OH; disulfide 5-10) | 2.72 ± 0.04 nM | 
CC(C)C[C@@H]1NC(=O)[C@@H](NC(=O)[C@H](CO)NC(=O)[C@H](Cc2ccccc2)NC(=O)[C@H](CC(=O)O)NC(=O)[C@@H](N)CO)CSSC[C@@H](C(=O)N[C@@H](CCCNC(=N)N)C(=O)N[C@@H](CCCNC(=N)N)C(=O)O)NC(=O)CNC(=O)[C@H](CCC(=O)O)NC(=O)[C@H](CO)NC1=O [T12R] (H-SDFSCLSEGCRR-OH; disulfide 5-10) | 4.41 ± 0.24 nM | Inhibitory activity / binding in words, by Ki [2]: significantly higher inhibition and binding affinity
CC(C)C[C@H](NC(=O)[C@H](CCCNC(=N)N)NC(=O)[C@@H]1CSSC[C@H](NC(=O)[C@H](CO)NC(=O)[C@H](Cc2ccccc2)NC(=O)[C@H](CC(=O)O)NC(=O)[C@@H](N)CO)C(=O)N[C@@H](CC(C)C)C(=O)N[C@@H](CO)C(=O)N[C@@H](CCC(=O)O)C(=O)NCC(=O)N1)C(=O)O [T12L] (H-SDFSCLSEGCRL-OH; disulfide 5-10) | 12.9 ± 1.02 nM | 
CC(C)C[C@@H]1NC(=O)[C@@H](NC(=O)[C@H](CO)NC(=O)[C@H](Cc2ccccc2)NC(=O)[C@H](CC(=O)O)NC(=O)[C@@H](N)CO)CSSC[C@@H](C(=O)N[C@@H](CCCNC(=N)N)C(=O)N[C@@H](CCCCN)C(=O)O)NC(=O)CNC(=O)[C@H](CCC(=O)O)NC(=O)[C@H](C)NC1=O [S7A + T12K] (H-SDFSCLAEGCRK-OH; disulfide 5-10) | 0.3 ± 0.02 nM | 
CC(C)C[C@@H]1NC(=O)[C@@H](NC(=O)[C@H](CO)NC(=O)[C@H](Cc2ccccc2)NC(=O)[C@H](CC(=O)O)NC(=O)[C@@H](N)CO)CSSC[C@@H](C(=O)N[C@@H](CCCNC(=N)N)C(=O)NCC(=O)O)NC(=O)CNC(=O)[C@H](CCC(=O)O)NC(=O)CNC1=O [S7G + T12G] (H-SDFSCLGEGCRG-OH; disulfide 5-10) | 7.73 ± 0.34 nM | 
CC(C)C[C@@H]1NC(=O)[C@@H](NC(=O)[C@H](CO)NC(=O)[C@H](Cc2ccccc2)NC(=O)[C@H](CC(=O)O)NC(=O)[C@@H](N)CO)CSSC[C@@H](C(=O)N[C@@H](CCCNC(=N)N)C(=O)NCC(=O)O)NC(=O)CNC(=O)[C@H](CCC(=O)O)NC(=O)[C@H](CO)NC1=O [T12G] (H-SDFSCLSEGCRG-OH; disulfide 5-10) | 10.6 ± 0.55 nM | 
CC(C)C[C@@H]1NC(=O)[C@@H](NC(=O)[C@H](CO)NC(=O)[C@H](Cc2ccccc2)NC(=O)[C@H](CC(=O)O)NC(=O)[C@@H](N)CO)CSSC[C@@H](C(=O)N[C@@H](CCCNC(=N)N)C(=O)N[C@H](C(=O)O)[C@@H](C)O)NC(=O)CNC(=O)[C@H](CCC(=O)O)NC(=O)[C@H](CO)NC1=O [ASIP] (H-SDFSCLSEGCRT-OH; disulfide 5-10) | 13 ± 1.64 nM | 
CC(C)C[C@@H]1NC(=O)[C@@H](NC(=O)[C@H](CO)NC(=O)[C@H](Cc2ccccc2)NC(=O)[C@H](CC(=O)O)NC(=O)[C@@H](N)CO)CSSC[C@@H](C(=O)N[C@@H](CCCNC(=N)N)C(=O)N[C@H](C(=O)O)[C@@H](C)O)NC(=O)CNC(=O)[C@H](CCC(=O)O)NC(=O)CNC1=O [S7G] (H-SDFSCLGEGCRT-OH; disulfide 5-10) | 5.14 ± 0.3 nM | 
CC(C)C[C@@H]1NC(=O)[C@@H](NC(=O)[C@H](CO)NC(=O)[C@H](Cc2ccccc2)NC(=O)[C@H](CC(=O)O)NC(=O)[C@@H](N)CO)CSSC[C@@H](C(=O)N[C@@H](CCCNC(=N)N)C(=O)N[C@@H](C)C(=O)O)NC(=O)CNC(=O)[C@H](CCC(=O)O)NC(=O)[C@H](CO)NC1=O [T12A] (H-SDFSCLSEGCRA-OH; disulfide 5-10) | 17.4 ± 1.42 nM | 
B1 |  | Ki [1]: 0.005 nM
B2 |  | Ki [4]: 0.15 nM
